For 2 compounds, Kd results are on record in publication PMC8910297, “Investigation of the Molecular Details of the Interactions of Selenoglycosides and Human Galectin-3” (International Journal of Molecular Sciences, 2022).

The term Kd denotes the free concentration of one partner at which half of the binding sites on the other are occupied at equilibrium, for simple one-to-one binding.

For experiment [1], the target named is T1, Human galectin-3 (hGal-3) (Homo sapiens, UniProt P17931).
T1 construct: gene LGALS3
Nature of the experiment: biochemical.

In experiment [2] the target is T1, Human galectin-3 (hGal-3). Nature of the experiment: biochemical. The source holds these as a separate data set.

Where two headings read alike, the source gives them in different places.

T1 sequence (P17931 108-250): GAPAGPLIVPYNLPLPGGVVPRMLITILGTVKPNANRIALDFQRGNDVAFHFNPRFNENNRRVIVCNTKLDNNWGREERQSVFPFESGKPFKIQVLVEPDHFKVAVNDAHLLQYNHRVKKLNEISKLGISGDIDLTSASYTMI

Turning to `OC[C@H]1O[C@@H]([Se][C@@H]2O[C@H](CO)[C@H](O)[C@H](O)[C@H]2O)[C@H](O)[C@@H](O)[C@H]1O` [SeDG, di(β-D-galactopyranosyl)selenide], the Kd in experiment [1] stood at 0.0352 ± 0.0072 mM.

For `OC[C@H]1O[C@@H]([Se][Se][C@@H]2O[C@H](CO)[C@H](O)[C@H](O)[C@H]2O)[C@H](O)[C@@H](O)[C@H]1O` [DSeDG, di(β-D-galactopyranosyl)diselenide], the affinity in experiment [2], expressed as Kd, was 8.5 ± 2.5 mM.
